Test results taken from patent publication US20250090537A1, “ANTIVIRAL COMPOUNDS AND METHODS OF MAKING AND USING THE SAME” (Gilead Sciences, Inc., priority 2023, published 2025).

Columns and labels:
[1] = system: RSV strain A2; assay: RSV Cellomics assay for RSV A2 antiviral activity (EC50-RSV-Hep2-96-Cellomics); format: cell-based; settings: human respiratory syncytial virus, HEp-2, 72 h; Hep2 cells infected with RSV strain A2, MOI=0.05, 3 days; Example B1
Procedure: Example B1: RSV Cellomics Assay for RSV A2 Antiviral Activity (EC50-RSV-Hep2-96-Cellomics) 8×10^3 Hep2 cells are seeded into 96 well plates in 100 μL of media (DMEM supplemented with GlutaMAX, 10% FBS and Pen/Strep) and briefly spun at 50×g for 1 minute to attach cells. Cells were further allowed to attach with overnight incubation at 37° C.+5% CO2. The following day, the media was aspirated and 100 μL of fresh DMEM media containing 2% FBS was added. A three-fold dilution series of compounds of interest are then added to the plate using the Tecan D300e dispenser and the plate is normalized to the well with the highest volume of DMSO. The cells are next infected by adding 100 μL of media containing RSV strain A2 at an MOI=0.05 and the plates incubated for 3 days at 37° C.+5% CO2. Following the incubation, the media is removed, and the cells are washed once with 250 μL PBS and fixed with 250 μL ice-cold 100% methanol for 10 minutes at 4° C. The methanol is then removed and the plates air dried for 5 minutes and then washed once with 250 μL PBS to remove any residual methanol. The wells are then blocked 60 µL/well of BlockAid (B10710, Thermo-Fisher) for 1 hour at RT on rocker at which point the blocking buffer is carefully aspirated. Primary antibody against the RSV F protein (MAB 858-1) is then diluted 1:2000 in SuperBlock (37515, Thermo Fisher) and 50 μL of the primary antibody solution is added to each well. The plates are incubated at room temperature for 1 hour with gentle agitation and then washed with 250 μL of PBS-Tween 3 times. A goat anti-mouse AlexaFluor 647 conjugated secondary antibody (Sigma, A21235) is then diluted 1:2000 and Hoescht 33342 (H3570) at 1:1000 in SuperBlock and 50 μL added to the wells for 1 hour at 37° C. After incubation the antibody solution is aspirated, and the wells are then washed with 250 μL of PBS-Tween 3 times. To keep cells from drying out, 100 μL of PBS is added to each well and the plates are sealed with black plate seal. Fluorescence at the 647 nm wavelength is measured using a Cellomics CellInsight CX7 machine. Compound activity is determined as a percentage of the % positive cells (or average intensity) compared to DMSO treated RSV infected well controls following subtraction of uninfected controls. The EC50 values are then calculated using nonlinear regression analysis in GraphPad Prism.

[2] = MT4 CC50 cytotoxicity (CC50-MT4-384); format: cell-based; settings: human; uninfected MT-4 cells, 4-5 days, Cell-Titer Glo; Example G
Procedure: Example G. HEp-2 and MT4 CC50
Cytotoxicity of the compounds was determined in uninfected cells using the cell viability reagent in a similar fashion as described before for other cell types (Cihlar et al., ANTIMICROB AGENTS CHEMOTHER. 2008, 52(2):655-65). HEp-2 (1.5×10^3 cells/well) and MT-4 (2×10^3 cells/well) cells were plated in 384-well plates and incubated with the appropriate medium containing 3-fold serially diluted compound ranging from 15 nM to 100,000 nM. Cells were cultured for 4-5 days at 37° C. Following the incubation, the cells were allowed to equilibrate to 25° C., and cell viability was determined by adding Cell-Titer Glo viability reagent. The mixture was incubated for 10 min, and the luminescence signal was quantified using an Envision plate reader. Untreated cell and cells treated at 2 μM puromycin (Sigma, St. Louis, MO) serve as 100% and 0% cell viability control, respectively. The percent of cell viability was calculated for each tested compound concentration relative to the 0% and 100% controls and the CC50 value was determined by non-linear regression as a compound concentration reducing the cell viability by 50%.

Row | EC50 [1] [µM] | Compound | CC50 [2] [µM]
1 | 9.75 | N#C[C@]1(CO)O[C@@H](c2ccc3c(N)ncnn23)[C@H](O)[C@@H]1O [Compound 0, (2R,3S,4R,5S)-5-(4-aminopyrrolo[1,2-f][1,2,4]triazin-7-yl)-3,4-dihydroxy-2-(hydroxymethyl)tetrahydrofuran-2-carbonitrile, reference compound] | 
2 | 19.2 | CCOC(=O)O[C@H]1[C@H](c2ccc3c(N)ncnn23)O[C@](C#N)(COC(C)=O)[C@H]1OC(=O)OCC [Compound 1, ((2R,3S,4S,5S)-5-(4-aminopyrrolo[2,1-f][1,2,4]triazin-7-yl)-2-cyano-3,4-bis((ethoxycarbonyl)oxy)tetrahydrofuran-2-yl)methyl acetate] | > 50
3 | 36.6 | CCOC(=O)O[C@H]1[C@H](c2ccc3c(N)ncnn23)O[C@](C#N)(COC(=O)C(C)C)[C@H]1OC(=O)OCC [Compound 3, ((2R,3S,4S,5S)-5-(4-aminopyrrolo[2,1-f][1,2,4]triazin-7-yl)-2-cyano-3,4-bis((ethoxycarbonyl)oxy)tetrahydrofuran-2-yl)methyl isobutyrate] | > 50
4 | 37.5 | CCOC(=O)O[C@H]1[C@H](c2ccc3c(N)ncnn23)O[C@](C#N)(COC(=O)CC(C)(C)C)[C@H]1OC(=O)OCC [Compound 4, ((2R,3S,4S,5S)-5-(4-aminopyrrolo[2,1-f][1,2,4]triazin-7-yl)-2-cyano-3,4-bis((ethoxycarbonyl)oxy)tetrahydrofuran-2-yl)methyl 3,3-dimethylbutanoate] | > 50
